For orientation: EC50 means the concentration at which the effect is half-maximal.

Molecules are shown by their SMILES. Where only a bound is given, the exact number is not on record here.

The subject of data set [1] is F32-ART5 and F32-TEM parasites. Description: Recrudescence assay. In kind it is cell-based, Plasmodium falciparum. To be noted: 48 h exposure; 2.5 µM 3i or 18 µM ART; log-rank Mantel-Cox test. How it is done:
Recrudescence assay was performed to evaluate the ability of the F32-ART5 parasites to survive drug exposure comparatively to the F32-TEM parasites. D-sorbitol synchronized ring-stages at 3% parasitemia (2% hematocrit) were exposed to drug for 48 h. After drug exposure, parasite cultures were washed with RPMI-1640 medium and replaced in normal drug-free culture conditions. The time to parasite recrudescence was determined as the time required to reach the 3% initial parasitemia. […] Each experiment was performed for F32-ART5 and F32-TEM and cultivated in parallel in the same conditions to generate paired results. This was carried out at least three times independently. A statistical analysis (log-rank Mantel–Cox test) was carried out on data thanks to a Kaplan–Meier survival analysis (using GraphPad Prism software) considering censored data.
Figure S48. 13C NMR spectrum of 2i in CDCl3, on a Bruker ARX 101 spectrometer
2. […]
3. Studying the effect of (3i) on the liver stage development of P. falciparum Cryopreserved primary human hepatocytes were seeded in 96 well plates with a pre-determined seeding dose that gave a single dense layer of attached hepatocytes. […]
The culture medium with or without drugs was refreshed every 48 hours and two independent plates were studied. […] Plates were subjected to quantification using an automated plate scanner. […]

For data set [2], the system named is P. falciparum ART-sensitive strain F32-TEM. Description: Standard in vitro chemo-sensitivity assay, F32-TEM. The note with it: Plasmodium falciparum, F32, 48 h, read-out: Mean ± SEM EC50 values F32-TEM. In kind it is cell-based. How it is done:
(§1) The Plasmodium falciparum ART-resistant strain F32-ART5 and its tween ART-sensitive strain F32-TEM [33, 41] were cultivated at 37 °C with 5% CO2 in human red blood cells (EFS, French Blood Bank) diluted to 2% hematocrit in RPMI-1640 medium (Biowest, Nuaillé, France) supplemented with 5% human serum (EFS, French Blood Bank), as previously reported.
(§2) The chemosensitivity assay was carried out in 96-well culture plates on synchronized ring-stage parasites at 1% parasitemia obtained after D-sorbitol treatment. The antiplasmodial activities were evaluated using the SYBR Green I method. Parasites were exposed for 48 h to a range of concentrations of the different tested compounds. Each drug concentration was tested in triplicates. Parasite pellets were then washed in 1× PBS prior to lysing red blood cells at −20 °C overnight. Then, the plates were thawed and 100 µL of each well were transferred into a black 96-well plate. Next, 100 µL per well of SYBR Green I (Thermo Fisher) diluted at a final concentration of 2× in lysis buffer (20 mM Tris base pH 7.5, 5 mM EDTA, 0.008% w/v saponin, 0.08% w/v Triton X-100) were added and left to incubate for 1 h at room temperature prior to reading the plates on BioTek FLx800 Microplate Fluorescence Reader (λexcitation = 485 nm, λemission = 528 nm). Relative EC50 values were determined using GraphPad Prism software.

The subject of data set [3] is P. falciparum ART-resistant strain F32-ART5. Description: Standard in vitro chemo-sensitivity assay, F32-ART5. The note with it: Plasmodium falciparum, F32, 48 h, read-out: Mean ± SEM EC50 values F32-ART5. In kind it is cell-based. As to the method: as §1, §2
The subject of data set [4] is PfFCR-3 (FCR-3 multidrug-resistant strain). Also noted: method as in PMID 28291694. The note with it: Figure 2; cited from earlier work.
For data set [5], the system named is HepG2. To be noted: Figure 2; cited from earlier work.
In data set [6] the test system is Pf3D7 (3D7 chloroquine-sensitive strain). The note with it: Figure 2; cited from earlier work.

In the case of `C[C@@H]1CC[C@H]2[C@@H](C)C(=O)O[C@@H]3O[C@@]4(C)CC[C@@H]1[C@]32OO4` [Artemisinin, reference compound], in data set [1], the “Recrudescence of F32-ART5 compared with F32-TEM after drug exposure” value was “significant faster”. Further, the EC50 in data set [2] came to 19 ± 3 nM; in data set [3] it was 11 ± 3 nM.
Regarding `Cc1c(/C=N/Nc2ccnc3cc(Cl)ccc23)[n+]([O-])c2cc(Cl)ccc2[n+]1[O-]` [QdNO 19], the values for the 50% effective concentration (EC50) in data set [4] and in data set [6] were 2800 nM and 240 nM, respectively. Further, the CC50 in data set [5] is greater than 241000 nM.

The values are drawn from article PMC8400257, “2-Phenoxy-3-Trichloromethylquinoxalines Are Antiplasmodial Derivatives with Activity against the Apicoplast of Plasmodium falciparum” (Pharmaceuticals, 2021).
